# Measured values published in ChEMBL document CHEMBL1201861, “Genomics of Drug Sensitity in Cancer screening data, Wellcome Trust Sanger Institute”.
# Columns and labels:
# Test in all cases: cells
# Type in all cases: functional, cell-based, Homo sapiens
# KY821 = details: Homo sapiens, KY821;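 note: growth inhibition of human KY821 cells, read out by a cell viability assay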
# Description: SANGER: Inhibition of human KY821 cell growth in a cell viability assay.
# MMAC-SF = details: Homo sapiens, MMAC-SF;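 note: growth inhibition of human MMAC-SF cells, read out with a cell viability assay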
# Description: SANGER: Inhibition of human MMAC-SF cell growth in a cell viability assay.
# A101D = details: Homo sapiens, A101D;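 note: growth inhibition of the cell line, measured with a viability assay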
# Description: SANGER: Inhibition of human A101D cell growth in a cell viability assay.
# K562 = details: Homo sapiens, K562
# Description: SANGER: Inhibition of human K-562 cell growth in a cell viability assay.
# Becker = details: Homo sapiens, Becker;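 note: growth inhibition of Becker cells, read out with a cell viability assay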
# Description: SANGER: Inhibition of human Becker cell growth in a cell viability assay.
# GB-1 = details: Homo sapiens, GB-1;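 note: growth of GB-1 cells judged by a viability assay, IC50 marks the concentration inhibiting growth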
# Description: SANGER: Inhibition of human GB-1 cell growth in a cell viability assay.
# NCI-H526 = details: Homo sapiens, NCI-H526;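 note: growth inhibition of the human NCI-H526 cell line, measured by a cell viability assay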
# Description: SANGER: Inhibition of human NCI-H526 cell growth in a cell viability assay.
# NKM-1 = details: Homo sapiens, NKM-1;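 note: growth inhibition of NKM-1 cells, read out with a cell viability assay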
# Description: SANGER: Inhibition of human NKM-1 cell growth in a cell viability assay.
# VA-ES-BJ = details: Homo sapiens, VA-ES-BJ;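 note: growth inhibition of the VA-ES-BJ cell line, read out by a cell viability assay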
# Description: SANGER: Inhibition of human VA-ES-BJ cell growth in a cell viability assay.
# GI-ME-N = details: Homo sapiens, GI-ME-N;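 note: growth inhibition of human GI-ME-N cells, read out with a cell viability assay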
# Description: SANGER: Inhibition of human GI-ME-N cell growth in a cell viability assay.
# LB373-MEL-D = details: Homo sapiens, LB373-MEL-D;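 note: growth inhibition of the cell line, read out in a cell viability assay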
# Description: SANGER: Inhibition of human LB373-MEL-D cell growth in a cell viability assay.
# ML-2 = details: Homo sapiens, ML-2;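 note: growth inhibition of ML-2 cells, measured with a cell viability readout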
# Description: SANGER: Inhibition of human ML-2 cell growth in a cell viability assay.
# ONS-76 = details: Homo sapiens, ONS-76;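 note: growth inhibition of human ONS-76 cells, read out with a cell viability assay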
# Description: SANGER: Inhibition of human ONS-76 cell growth in a cell viability assay.
# HOP-62 = details: Homo sapiens, HOP-62;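 note: cell growth inhibition determined with a viability assay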
# Description: SANGER: Inhibition of human HOP-62 cell growth in a cell viability assay.
# EW-18 = details: Homo sapiens, EW-18;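 note: growth inhibition of EW-18 cells, read out by a cell viability assay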
# Description: SANGER: Inhibition of human EW-18 cell growth in a cell viability assay.
# KGN = details: Homo sapiens, KGN;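 note: growth inhibition of KGN cells, read out with a cell viability assay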
# Description: SANGER: Inhibition of human KGN cell growth in a cell viability assay.
# GR-ST = details: Homo sapiens, GR-ST
# Description: SANGER: Inhibition of human GR-ST cell growth in a cell viability assay.
# KP-N-YS = details: Homo sapiens, KP-N-YS;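 note: cell viability assay measuring inhibition of cell line growth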
# Description: SANGER: Inhibition of human KP-N-YS cell growth in a cell viability assay.
# LB1047-RCC = details: Homo sapiens, LB1047-RCC;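 note: inhibition of cell growth, determined with a cell viability assay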
# Description: SANGER: Inhibition of human LB1047-RCC cell growth in a cell viability assay.
# SW 962 = details: Homo sapiens, SW 962;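 note: growth inhibition of human SW962 cells, read out by a cell viability assay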
# Description: SANGER: Inhibition of human SW962 cell growth in a cell viability assay.
# ALL-PO = details: Homo sapiens, ALL-PO;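 note: growth inhibition of ALL-PO cells, read out by a cell viability assay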
# Description: SANGER: Inhibition of human ALL-PO cell growth in a cell viability assay.
# SK-UT-1 = details: Homo sapiens, SK-UT-1;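 note: growth inhibition of SK-UT-1 cells, measured by a cell viability assay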
# Description: SANGER: Inhibition of human SK-UT-1 cell growth in a cell viability assay.
# SK-PN-DW = details: Homo sapiens, SK-PN-DW;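 note: growth inhibition measured with a viability assay on these cells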
# Description: SANGER: Inhibition of human SK-PN-DW cell growth in a cell viability assay.
# HC-1 = details: Homo sapiens, HC-1;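 note: growth inhibition of HC-1 cells measured by a cell viability assay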
# Description: SANGER: Inhibition of human HC-1 cell growth in a cell viability assay.
# A3-KAW = details: Homo sapiens, A3-KAW;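 note: growth inhibition of human A3-KAW cells, read out with a cell viability assay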
# Description: SANGER: Inhibition of human A3-KAW cell growth in a cell viability assay.
# KLE = details: Homo sapiens, KLE;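 note: growth inhibition of human KLE cells, read out with a cell viability assay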
# Description: SANGER: Inhibition of human KLE cell growth in a cell viability assay.
# IST-SL1 = details: Homo sapiens, IST-SL1;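 note: growth inhibition of human IST-SL1 cells, read out with a cell viability assay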
# Description: SANGER: Inhibition of human IST-SL1 cell growth in a cell viability assay.
# BE-13 = details: Homo sapiens, BE-13;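 note: growth inhibition of human BE-13 cells, measured with a cell viability assay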
# Description: SANGER: Inhibition of human BE-13 cell growth in a cell viability assay.
# HH = details: Homo sapiens, HH
# Description: SANGER: Inhibition of human HH cell growth in a cell viability assay.
# MHH-NB-11 = details: Homo sapiens, MHH-NB-11;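 note: growth inhibition of human MHH-NB-11 cells, read out by a cell viability assay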
# Description: SANGER: Inhibition of human MHH-NB-11 cell growth in a cell viability assay.
# LB831-BLC = details: Homo sapiens, LB831-BLC;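 note: growth inhibition of LB831-BLC cells, read out with a cell viability assay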
# Description: SANGER: Inhibition of human LB831-BLC cell growth in a cell viability assay.
# LB2241-RCC = details: Homo sapiens, LB2241-RCC;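 note: cell viability assay measuring how strongly the cultured human renal carcinoma line is prevented from growing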
# Description: SANGER: Inhibition of human LB2241-RCC cell growth in a cell viability assay.
# TE-5 = details: Homo sapiens, TE-5;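 note: inhibition of cell growth, read out by a cell viability assay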
# Description: SANGER: Inhibition of human TE-5 cell growth in a cell viability assay.
# NB17 = details: Homo sapiens, NB17;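 note: growth inhibition of NB17 cells, read out with a cell viability assay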
# Description: SANGER: Inhibition of human NB17 cell growth in a cell viability assay.
# ES8 = details: Homo sapiens, ES8;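 note: growth inhibition of human ES8 cells, read out with a cell viability assay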
# Description: SANGER: Inhibition of human ES8 cell growth in a cell viability assay.
# NCI-H1838 = details: Homo sapiens, NCI-H1838;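 note: growth inhibition of NCI-H1838 cells, determined with a cell viability readout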
# Description: SANGER: Inhibition of human NCI-H1838 cell growth in a cell viability assay.
# CGTH-W-1 = details: Homo sapiens, CGTH-W-1;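 note: growth inhibition of human CGTH-W-1 cells measured by cell viability assay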
# Description: SANGER: Inhibition of human CGTH-W-1 cell growth in a cell viability assay.
# NMC-G1 = details: Homo sapiens, NMC-G1;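 note: growth inhibition of the NMC-G1 cell line, measured with a cell viability read-out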
# Description: SANGER: Inhibition of human NMC-G1 cell growth in a cell viability assay.
# KALS-1 = details: Homo sapiens, KALS-1;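 note: growth inhibition of KALS-1 cells, determined with a cell viability assay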
# Description: SANGER: Inhibition of human KALS-1 cell growth in a cell viability assay.
# TGBC24TKB = details: Homo sapiens, TGBC24TKB;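 note: growth inhibition of human TGBC24TKB cells, read out with a cell viability assay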
# Description: SANGER: Inhibition of human TGBC24TKB cell growth in a cell viability assay.
# MPP-89 = details: Homo sapiens, MPP-89;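 note: growth inhibition of human MPP-89 cells, read out with a cell viability assay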
# Description: SANGER: Inhibition of human MPP-89 cell growth in a cell viability assay.
# COR-L88 = details: Homo sapiens, COR-L88;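 note: growth inhibition of COR-L88 cells, read out with a cell viability assay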
# Description: SANGER: Inhibition of human COR-L88 cell growth in a cell viability assay.
# KM12 = details: Homo sapiens, KM12;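 note: KM12 cell growth inhibition, read out with a cell viability assay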
# Description: SANGER: Inhibition of human KM12 cell growth in a cell viability assay.
# EOL1 = details: Homo sapiens, EOL1;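 note: growth inhibition of EoL-1 cells, read out by a cell viability assay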
# Description: SANGER: Inhibition of human EoL-1-cell cell growth in a cell viability assay.
# NCI-H1581 = details: Homo sapiens, NCI-H1581;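 note: cell growth inhibition read out by a viability assay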
# Description: SANGER: Inhibition of human NCI-H1581 cell growth in a cell viability assay.
# KU812 cell line = details: Homo sapiens, KU812;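 note: growth inhibition of KU812 cells, read out with a cell viability assay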
# Description: SANGER: Inhibition of human KU812 cell growth in a cell viability assay.
# CCRF-CEM = details: Homo sapiens, CCRF-CEM;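 note: inhibition of CCRF-CEM cell growth, measured by a cell viability assay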
# Description: SANGER: Inhibition of human CCRF-CEM cell growth in a cell viability assay.
structure (smiles),measurement,setting,value
CCN(CC)CCNC(=O)c1c(C)[nH]c(/C=C2\C(=O)Nc3ccc(F)cc32)c1C [SUNITINIB],IC50,KY821,2800 nM
same,IC50,MMAC-SF,6110 nM
same,IC50,A101D,2780 nM
same,IC50,K562,> 8000 nM
same,IC50,Becker,> 8000 nM
same,IC50,GB-1,710 nM
same,IC50,NCI-H526,> 8000 nM
same,IC50,NKM-1,98.5 nM
same,IC50,VA-ES-BJ,> 8000 nM
same,IC50,GI-ME-N,> 8000 nM
same,IC50,LB373-MEL-D,> 8000 nM
same,IC50,ML-2,2640 nM
same,IC50,ONS-76,> 8000 nM
same,IC50,HOP-62,4340 nM
same,IC50,EW-18,> 8000 nM
same,IC50,KGN,2600 nM
same,IC50,GR-ST,> 8000 nM
same,IC50,KP-N-YS,> 8000 nM
same,IC50,LB1047-RCC,1820 nM
same,IC50,SW 962,> 8000 nM
same,IC50,ALL-PO,79.9 nM
same,IC50,SK-UT-1,> 8000 nM
same,IC50,SK-PN-DW,> 8000 nM
same,IC50,HC-1,5430 nM
same,IC50,A3-KAW,1630 nM
same,IC50,KLE,> 8000 nM
same,IC50,IST-SL1,> 8000 nM
same,IC50,BE-13,3230 nM
same,IC50,HH,4210 nM
same,IC50,MHH-NB-11,> 8000 nM
same,IC50,LB831-BLC,> 8000 nM
same,IC50,LB2241-RCC,> 8000 nM
same,IC50,TE-5,> 8000 nM
same,IC50,NB17,> 8000 nM
same,IC50,ES8,> 8000 nM
same,IC50,NCI-H1838,> 8000 nM
same,IC50,CGTH-W-1,30.9 nM
same,IC50,NMC-G1,> 8000 nM
same,IC50,KALS-1,> 8000 nM
same,IC50,TGBC24TKB,> 8000 nM
same,IC50,MPP-89,> 8000 nM
same,IC50,COR-L88,> 8000 nM
same,IC50,KM12,350 nM
same,IC50,EOL1,< 31.2 nM
same,IC50,NCI-H1581,> 8000 nM
same,IC50,KU812 cell line,6690 nM
same,IC50,CCRF-CEM,> 8000 nM
OCCCNc1cc(-c2ccnc(Nc3cccc(Cl)c3)n2)ccn1,IC50,KY821,90.5 nM
same,IC50,MMAC-SF,> 256 nM
same,IC50,A101D,20.5 nM
same,IC50,K562,> 256 nM
same,IC50,Becker,47.9 nM
same,IC50,GB-1,38 nM
same,IC50,NCI-H526,> 256 nM
same,IC50,NKM-1,79.1 nM
same,IC50,VA-ES-BJ,41.6 nM
same,IC50,GI-ME-N,105 nM
same,IC50,LB373-MEL-D,209 nM
same,IC50,ML-2,> 256 nM
same,IC50,ONS-76,76.1 nM
same,IC50,HOP-62,41.2 nM
same,IC50,EW-18,> 256 nM
same,IC50,KGN,10.5 nM
same,IC50,GR-ST,174 nM
same,IC50,KP-N-YS,> 256 nM
same,IC50,LB1047-RCC,28.4 nM
same,IC50,SW 962,45.1 nM
same,IC50,ALL-PO,80 nM
same,IC50,SK-UT-1,157 nM
same,IC50,SK-PN-DW,90.2 nM
same,IC50,HC-1,52.2 nM
same,IC50,A3-KAW,19.9 nM
same,IC50,KLE,55.6 nM
same,IC50,IST-SL1,147 nM
same,IC50,BE-13,76.9 nM
same,IC50,HH,70.6 nM
same,IC50,MHH-NB-11,217 nM
same,IC50,LB831-BLC,32.5 nM
same,IC50,LB2241-RCC,> 256 nM
same,IC50,TE-5,90.5 nM
same,IC50,NB17,88.7 nM
same,IC50,ES8,> 256 nM
same,IC50,NCI-H1838,> 256 nM
same,IC50,CGTH-W-1,79.8 nM
same,IC50,NMC-G1,32.3 nM
same,IC50,KALS-1,35.3 nM
same,IC50,TGBC24TKB,> 256 nM
same,IC50,MPP-89,90.4 nM
same,IC50,COR-L88,> 256 nM
same,IC50,KM12,124 nM
same,IC50,EOL1,> 256 nM
same,IC50,NCI-H1581,> 256 nM
same,IC50,KU812 cell line,45 nM
same,IC50,CCRF-CEM,47 nM
COc1cc2ncn(-c3cc(OCc4ccccc4C(F)(F)F)c(C(N)=O)s3)c2cc1OC [GW843682X],IC50,KY821,15.9 nM
same,IC50,MMAC-SF,> 256 nM
same,IC50,A101D,11.3 nM
same,IC50,K562,59.4 nM
same,IC50,Becker,59.7 nM
same,IC50,GB-1,27.5 nM
same,IC50,NCI-H526,88.3 nM
same,IC50,NKM-1,138 nM
same,IC50,VA-ES-BJ,22.7 nM
same,IC50,GI-ME-N,88.3 nM
same,IC50,LB373-MEL-D,149 nM
same,IC50,ML-2,50.3 nM
same,IC50,ONS-76,77.8 nM
same,IC50,HOP-62,44.8 nM
same,IC50,EW-18,> 256 nM
same,IC50,KGN,33.2 nM
same,IC50,GR-ST,84 nM
same,IC50,KP-N-YS,27.2 nM
same,IC50,LB1047-RCC,25.4 nM
same,IC50,SW 962,42.2 nM
same,IC50,ALL-PO,8.76 nM
same,IC50,SK-UT-1,23.7 nM
same,IC50,SK-PN-DW,38.7 nM
same,IC50,HC-1,26.2 nM
same,IC50,A3-KAW,51.7 nM
same,IC50,KLE,213 nM
same,IC50,IST-SL1,> 256 nM
same,IC50,BE-13,11 nM
same,IC50,HH,98.8 nM
same,IC50,MHH-NB-11,227 nM
same,IC50,LB831-BLC,200 nM
same,IC50,LB2241-RCC,> 256 nM
same,IC50,TE-5,23.4 nM
same,IC50,NB17,41 nM
same,IC50,ES8,10.5 nM
same,IC50,NCI-H1838,> 256 nM
same,IC50,CGTH-W-1,> 256 nM
same,IC50,NMC-G1,206 nM
same,IC50,KALS-1,22.5 nM
same,IC50,TGBC24TKB,45 nM
same,IC50,MPP-89,226 nM
same,IC50,COR-L88,78.4 nM
same,IC50,KM12,16.5 nM
same,IC50,EOL1,42.3 nM
same,IC50,NCI-H1581,30.5 nM
same,IC50,KU812 cell line,85.2 nM
same,IC50,CCRF-CEM,14.8 nM
